Tests used:
Test in all cases: relative viability (nuclei count vs DMSO), 5 days (fraction); higher = more cells survive
[1] = compound: NCC(=O)Nc1ccc(-n2nc(C(F)(F)F)cc2-c2ccc3c(ccc4ccccc43)c2)cc1 + CC1(C)CCC(c2ccc(Cl)cc2)=C(CN2CCN(c3ccc(C(=O)NS(=O)(=O)c4ccc(N[C@H](CCN5CCOCC5)CSc5ccccc5)c(S(=O)(=O)C(F)(F)F)c4)cc3)CC2)C1 [Navitoclax] (partner 0.5 µM)
Summary of the method: (§1)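 Each reported value is a median over duplicate plates. It expresses relative viability: treated-well nuclei count divided by vehicle-well nuclei count. Lung cancer cell lines in 1536-well plates were dosed by pin tool a day after seeding, alone with one drug or with a fixed anchor-drug dose plus five library-drug doses (not always all listed) in √10 steps, and nuclei were counted after 5 days.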

[2] = compound: C1CSC2=C(C(=O)N1)SC3=C2C=C(C=C3)O [kb NB 142-70] + Cc1cc(Nc2cc(N3CCN(C)CC3)nc(Sc3ccc(NC(=O)C4CC4)cc3)n2)n[nH]1 [Tozasertib] (partner 0.1 µM)
Summary of the method: as §1

[3] = compound: NCC(=O)Nc1ccc(-n2nc(C(F)(F)F)cc2-c2ccc3c(ccc4ccccc43)c2)cc1 + C[C@]1(O)C[C@@H](c2nc(-c3ccc4ccc(-c5ccccc5)nc4c3)c3c(N)nccn32)C1 [Linsitinib] (partner 1 µM)
Summary of the method: as §1

[4] = compound: NCC(=O)Nc1ccc(-n2nc(C(F)(F)F)cc2-c2ccc3c(ccc4ccccc43)c2)cc1 + CC(=O)c1c(C)c2cnc(Nc3ccc(N4CCNCC4)cn3)nc2n(C2CCCC2)c1=O [Palbociclib] (partner 0.5 µM)
Summary of the method: as §1

| Cell Line | relative viability ([1]; first compound 0.02 µM) | relative viability ([1]; first compound 0.06325 µM) | relative viability ([1]; first compound 0.2 µM) | relative viability ([1]; first compound 0.6325 µM) | relative viability ([1]; first compound 2 µM) | relative viability ([2]; first compound 0.1 µM) | relative viability ([2]; first compound 1 µM) | relative viability ([2]; first compound 3.162 µM) | relative viability ([3]; first compound 0.02 µM) | relative viability ([3]; first compound 0.06325 µM) | relative viability ([3]; first compound 0.2 µM) | relative viability ([3]; first compound 0.6325 µM) | relative viability ([3]; first compound 2 µM) | relative viability ([4]; first compound 0.02 µM) | relative viability ([4]; first compound 0.06325 µM) | relative viability ([4]; first compound 0.2 µM) | relative viability ([4]; first compound 0.6325 µM) | relative viability ([4]; first compound 2 µM) |
| --- | --- | --- | --- | --- | --- | --- | --- | --- | --- | --- | --- | --- | --- | --- | --- | --- | --- | --- |
| NCI-H1975 | 1.04 | 1.1 | 1.2 | 1.11 | 0.997 | 0.787 | 0.746 | 0.28 | 0.927 | 0.92 | 0.973 | 0.983 | 0.921 | 0.657 | 0.61 | 0.615 | 0.485 | 0.586 |
| CAL-12T | 1.17 | 1.19 | 1.37 | 1.2 | 1.34 | 0.36 | 0.395 | 0.267 | 0.718 | 0.836 | 0.865 | 0.775 | 0.819 | 0.527 | 0.481 | 0.462 | 0.588 | 0.423 |
| NCI-H1623 |  |  |  |  |  | 0.441 | 0.433 | 0.379 |  |  |  |  |  |  |  |  |  |  |
| HCC-44 | 0.866 | 0.942 | 1.02 | 0.958 | 0.944 | 0.728 | 0.901 | 0.722 | 0.648 | 0.688 | 0.697 | 0.632 | 0.652 | 1.04 | 0.961 | 0.994 | 0.977 | 0.962 |
| EKVX | 0.902 | 0.969 | 1.07 | 0.971 | 1.03 | 0.353 | 0.382 | 0.466 | 1.04 | 1.06 | 0.987 | 1.01 | 1.11 | 0.436 | 0.417 | 0.397 | 0.348 | 0.382 |
| NCI-H1651 | 1.06 | 1.11 | 1.13 | 0.998 | 1.01 | 0.678 | 0.748 | 0.311 | 0.945 | 1.05 | 0.963 | 1.01 | 1.01 | 0.508 | 0.555 | 0.497 | 0.539 | 0.541 |
| NCI-H1944 | 1.06 | 1.08 | 1.05 | 1.04 | 1.07 | 0.244 | 0.244 | 0.27 | 1.14 | 1.21 | 1.16 | 1.11 | 1.3 | 0.333 | 0.353 | 0.35 | 0.32 | 0.355 |
| NCI-H1703 | 1.07 | 1.06 | 1.35 | 1 | 1.51 |  |  |  | 0.718 | 0.781 | 0.52 | 0.691 | 0.591 |  |  |  |  |  |
| Calu-6 | 0.885 | 0.812 | 1.09 | 0.844 | 0.878 |  |  |  | 0.914 | 0.939 | 1.06 | 0.911 | 0.983 |  |  |  |  |  |
| EBC-1 | 0.451 | 0.427 | 0.554 | 0.456 | 0.435 |  |  |  | 0.888 | 0.856 | 0.892 | 0.899 | 0.895 |  |  |  |  |  |
| SW 1573 | 1.03 | 0.969 | 0.867 | 0.905 | 0.942 | 0.153 | 0.182 | 0.146 | 0.851 | 0.748 | 0.863 | 0.846 | 0.789 | 0.409 | 0.466 | 0.344 | 0.384 | 0.36 |
| A-427 | 0.798 | 0.956 | 0.972 | 0.95 | 0.959 | 0.252 | 0.221 | 0.195 | 1.12 | 1.17 | 1.16 | 1.02 | 1.03 | 0.502 | 0.567 | 0.527 | 0.526 | 0.534 |
| NCI-H2347 | 0.771 | 0.878 | 1 | 0.906 | 0.833 | 0.69 | 0.589 | 0.506 | 0.953 | 0.98 | 1.04 | 1.07 | 1.01 | 0.426 | 0.384 | 0.448 | 0.473 | 0.419 |
| NCI-H1355 | 0.921 | 0.895 | 1 | 0.999 | 0.978 | 0.577 | 0.542 | 0.428 | 0.769 | 0.855 | 0.849 | 0.867 | 0.82 | 0.426 | 0.43 | 0.393 | 0.408 | 0.405 |
| NCI-H358 |  |  |  |  |  | 0.109 | 0.0809 | 0.077 | 0.807 | 0.8 | 0.72 | 0.868 | 0.737 | 0.158 | 0.111 | 0.136 | 0.122 | 0.145 |
| PC-3 [JPC-3] | 0.765 | 0.842 | 0.718 | 0.84 | 0.79 | 0.923 | 0.94 | 0.773 | 0.957 | 0.977 | 0.992 | 0.963 | 0.961 | 0.536 | 0.561 | 0.578 | 0.524 | 0.571 |
| NCI-H2228 | 1.14 | 1.16 | 0.918 | 0.976 | 0.809 | 0.254 | 0.217 | 0.146 | 0.872 | 0.676 | 0.707 | 0.603 | 0.79 | 0.711 | 0.78 | 0.802 | 0.653 | 0.656 |
| HOP-62 | 1.06 | 1.01 | 0.996 | 0.91 | 1.08 | 0.314 | 0.315 | 0.245 | 1.14 | 0.901 | 0.854 | 1.03 | 1.05 | 0.453 | 0.384 | 0.42 | 0.452 | 0.545 |
| HARA | 1.24 | 1.14 | 1.15 | 1.16 | 1.15 | 0.0886 | 0.112 | 0.0824 | 0.935 | 1.01 | 1.18 | 0.965 | 0.935 | 0.258 | 0.173 | 0.287 | 0.294 | 0.256 |
| NCI-H838 | 1.19 | 1.12 | 1.34 | 1 | 1 | 0.29 | 0.249 | 0.271 | 1.03 | 1.01 | 1.1 | 0.925 | 0.881 | 0.228 | 0.237 | 0.224 | 0.192 | 0.213 |

From the supplement of paper PMC10307832
